The text below walks through data of patent US20260325655A1, “DECREASING THE INTRINSICALLY DISORDERED PROTEIN ALPHA-SYNUCLEIN’S LEVELS BY TARGETING ITS STRUCTURED MRNA WITH A RIBONUCLEASE TARGETING CHIMERA” (University of Florida Research Foundation, Incorporated, priority 2023, published 2026).

Holding throughout (format): cell-based, human
Experiment [1] has as its system SNCA mRNA. Briefly: competition of Synucleozid-2.0 with Syn-RiboTAC in SH-SY5Y cells. The settings on record: Synucleozid-2.0 0.1-10 μM; Syn-RiboTAC constant 2 μM. The method, then:
Syn-RiboTAC's activity is RNase L-dependent. To validate mode of action, RNase L was knocked down in SH-SY5Y cells with a pool of siRNAs (FIG. 5C), followed by treatment with Syn-RiboTAC. […] Syn-RiboTAC and Synucleozid-2.0 were validated to engage the same binding site in cells by a competition experiment using a constant concentration of Syn-RiboTAC(2 μM) and varying concentrations of Synucleozid-2.0 (0.1-10 μM).
(§1) RNA extraction and reverse transcription-quantitative polymerase chain reaction (RT-qPCR). Total RNA was extracted from cells using a Quick-RNA MiniPrep Kit (Zymo Research) per the manufacturer's protocol including DNase treatment. For each sample, 200 ng of RNA was reverse transcribed into cDNA by using a qScript cDNA Synthesis Kit (QuantaBio) according to the manufacturer's instructions. To assess the relative mRNA levels, RT-qPCR was performed in triplicate using SYBR Green PCR mater mix (Applied Biosystems) with a Quant Studio 5 Real-Time PCR system. The relative levels of mRNA were calculated by using the ΔΔCt method as previously described.^8

For the next experiment, the system named is APP. Briefly: APP protein in SH-SY5Y cells by Western blot. Here is the method: (§2) Western blotting. After 48 h, cells were gently washed with ice-cold 1× DPBS, and total protein was extracted with Mammalian Protein Extraction Reagent (M-PER, Thermo Scientific) per the manufacturer's protocol. After quantifying protein concentration by using BCA Protein Assay Kit (Pierce Biotechnology), ~30 μg of total protein for each sample was separated using a 10% SDS-polyacrylamide gel and transferred onto a PVDF membrane. The membrane was fixed with 0.4% paraformaldehyde (pH=7.0) for 30 min at room temperature^9 and then blocked with 5% (w/v) non-fat dry milk in 1× TBST (1× TBS containing 0.1% Tween-20) for 1 h at room temperature. […] After washing 10 min each with 1× TBST three times, immunocomplex signals of each protein were detected by using a SuperSignal West Pico Chemiluminescent Substrate (Pierce Biotechnology) according to the manufacturer's protocol. The memebrane was then stripped by using 1× Stripping Buffer (200 mM glycine, pH 2.2, 4 mM SDS, 1% (v/v) Tween 20) at room temperature for 15 min, followed by blocking with 5% (w/v) non-fat dry milk at room temperature for 1 h. β-actin was used to normalize the levels of all proteins, measured by incubating with a primary antibody for β-actin (1:5000, 3700S from Cell Signaling Technology) at 4° C. overnight. […]
For orientation: In western blotting, separated proteins are transferred to a membrane and probed.

For the next experiment, the system named is TfR. As to the kind of experiment: TfR protein in SH-SY5Y cells by Western blot. The method, then: as §2
The next experiment relates to ferritin. Briefly: ferritin protein in SH-SY5Y cells by Western blot. Here is the method:
as §2

The test system of experiment [2] is SNCA mRNA. As to the kind of experiment: SNCA mRNA cleavage after siRNA knock-down of RNase L in SH-SY5Y cells. The method, then:
as §1
Transfection of siRNAs. The siRNAs were purchased from commercial sources as listed in General information. The α-synuclein siRNA (final concentration of 200 nM) or RNase L siRNA (final concentration of 50 nM) were transfected into SH-SY5Y cells (at ~60% confluency in 12-well plates) by using the Lipofectamine RNAiMax (Life technologies) per manufacturer's protocol.

On to `O=C(CSc1nnc(-c2ccncc2)n1-c1ccc(Br)cc1)Nc1ccc2cn[nH]c2c1` [Synucleozid-2.0], for which the “SNCA mRNA levels in competition experiment” value in the experiment on SNCA mRNA [1] is listed as “dose-dependent restoration of SNCA mRNA levels”.
For `CCOC(=O)C1=C(Nc2ccccc2)S/C(=C\c2ccc(OCCOCCOCCOCCNC(=O)CCCOc3ccc(-n4c(SCC(=O)Nc5ccc6cn[nH]c6c5)nnc4-c4ccncc4)cc3)c(O)c2)C1=O` [Syn-RiboTAC], in the experiment with APP, the “effect on APP protein level” value is recorded as “no effect”. The “effect on TfR protein level” value in the experiment on TfR is “no effect”. In addition, the “effect on ferritin protein level” value with ferritin is reported as “no effect”. Also, the “effect of scrambled control siRNA on Syn-RiboTAC activity” value in the experiment with SNCA mRNA [2] (scrambled control siRNA) is reported as “No significant effect on activity”. Moreover, the “effect on SNCA mRNA after RNase L knock-down” value with SNCA mRNA [2] (siRNA pool against RNase L) is recorded as “ablated the effect of Syn-RiboTAC on SNCA mRNA”.
